Experimental data: patent US9896443B2, “Perforin inhibiting benzenesulfonamide compounds, preparation and uses thereof” (Peter MacCallum Cancer Institute, priority 2012, dated 2018)
Counter-ions that a name gives are not always drawn. Like-named read-outs stand apart in the source and are kept apart here.

Key:
[1] = system: KHYG-1 NK cell-mediated lysis of K562 cells; test: Inhibition of KHYG-1 NK cell-mediated lysis of K562 cells (51Cr release); assay type: cell-based; conditions: K562 target cells, Effector:Target 2:1, 4 hours at 37° C.
Procedure, shortened: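 KHYG-1 effector cells pretreated with compound (up to 20 µM) for 20 min at RT. 51Cr-labelled K562 targets were then added at effector:target 2:1 and incubated 4 h at 37 °C. 51Cr release was gamma-counted and expressed as % specific cytotoxicity.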

[2] = system: NK and perforin-mediated bone marrow rejection; test: In vivo inhibition of perforin-mediated bone marrow rejection; parameters: species or system C57Bl/6 mice; conditions: 120 mg/kg intra-peritoneal once daily day -2 to day +1; Balb/c bone marrow transplant; blood day +1
Procedure: In Vivo Inhibition of Perforin-Mediated Bone Marrow Rejection.
On day 0 mice received 12×106 Balb/c (CD45.2+) CFSE labelled bone marrow as well as 12×106 B6.PTP (CD45.1+) bone marrow. On day +1 blood was collected for in vivo cytotoxicity assays looking at the ratio of recipient (CD45.1+) versus donor cells (CFSE+) (FIG. 1). Results are illustrated in FIG. 2 as two experiments combined with n=6, 10, 10, 4 and 3/group. […] Statistically significant differences were calculated using two-tailed t tests between groups.

recombinant perforin = recombinant perforin (UniProt P10820); assay type: cell-based
Procedure, shortened: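 Jurkat T lymphoma cells labelled with 51Cr for 1 h, washed, then exposed to recombinant perforin with compound in RPMI plus 0.1% BSA. Lysis measured as 51Cr release. IC50 from a concentration range run in triplicate.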

[3] = lysis of Jurkat T lymphoma cells by recombinant perforin, 0.1% BSA, 30 min pre-incubation, 4 hours at 37° C.; read-out: Jurkat IC50
[4] = read-out: Jurkat IC50; lysis of Jurkat T lymphoma cells by recombinant perforin, 0.1% BSA, 30 min pre-incubation, 4 hours at 37° C.

Sequence of recombinant perforin (P10820 whole entry): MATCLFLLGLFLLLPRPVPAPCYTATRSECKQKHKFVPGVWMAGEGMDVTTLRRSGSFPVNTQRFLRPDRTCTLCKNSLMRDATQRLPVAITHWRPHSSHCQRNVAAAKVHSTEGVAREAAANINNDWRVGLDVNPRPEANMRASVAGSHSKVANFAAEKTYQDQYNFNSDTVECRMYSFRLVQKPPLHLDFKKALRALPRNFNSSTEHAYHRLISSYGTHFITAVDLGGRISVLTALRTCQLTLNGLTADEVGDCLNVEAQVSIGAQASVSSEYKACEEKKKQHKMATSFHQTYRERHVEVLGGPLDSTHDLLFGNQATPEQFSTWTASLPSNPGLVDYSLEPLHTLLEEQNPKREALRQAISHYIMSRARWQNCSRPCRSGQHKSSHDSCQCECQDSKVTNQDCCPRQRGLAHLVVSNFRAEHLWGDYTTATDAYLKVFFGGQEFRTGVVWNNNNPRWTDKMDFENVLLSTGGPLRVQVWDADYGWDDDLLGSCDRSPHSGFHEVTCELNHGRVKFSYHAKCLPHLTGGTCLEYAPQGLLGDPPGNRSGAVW

Row | SMILES | Inhibition of KHYG-1 at 20 μM (%) ([1]; sodium salt) | inhibition of NK and perforin-mediated bone marrow rejection [2] | inhibition at 20 µM ([1]; 4 h) | IC50 (recombinant perforin; [3]) | melting point | IC50 (recombinant perforin; [4]) | inhibition at 20 µM [1] | Inhibition of KHYG-1 at 20 μM (%) [1]
1 | CN1Cc2cc(-c3ccc(-c4cncc(NS(=O)(=O)c5ccc(F)cc5F)c4)s3)ccc2C1=O [Compound 1.Na, 2,4-Difluoro-N-(5-(5-(2-methyl-1-oxoisoindolin-5-yl)thiophen-2-yl)pyridin-3-yl)benzenesulfonamide, sodium salt] | 48% | able to inhibit NK and perforin-mediated bone marrow rejection |  |  |  |  |  | 
2 | CN1Cc2cc(-c3ccc(-c4cncc(S(=O)(=O)Nc5ccc(F)cc5F)c4)s3)ccc2C1=O [Compound 44, N-(2,4-Difluorophenyl)-5-(5-(2-methyl-1-oxoisoindolin-5-yl)thiophen-2-yl)pyridine-3-sulphonamide] |  |  | 57% | 2.24 µM | 221 to 224 °C |  |  | 
3 | CN1Cc2cc(-c3ccc(-c4cnc(N)c(S(=O)(=O)Nc5ccc(F)cc5F)c4)s3)ccc2C1=O [Compound 45, 2-Amino-N-(2,4-difluorophenyl)-5-(5-(2-methyl-1-oxoisoindolin-5-yl)thiophen-2-yl)pyridine-3-sulphonamide] |  |  | 14% |  | 278 to 279 °C | 4.63 µM |  | 
4 | CN1Cc2cc(-c3ccc(-c4cncc(N(C)S(=O)(=O)c5ccc(F)cc5F)c4)s3)ccc2C1=O [Compound 46, 2,4-Difluoro-N-methyl-N-(5-(5-(2-methyl-1-oxoisoindolin-5-yl)thiophen-2-yl)pyridin-3-yl)benzenesulphonamide] |  |  | 28% | 9.13 µM | 200 to 202 °C |  |  | 
5 | CN1Cc2ccc(-c3ccc(-c4cncc(NS(=O)(=O)c5ccc(F)cc5F)c4)s3)cc2C1=O [Compound 50, 2,4-Difluoro-N-(5-(5-(2-methyl-3-oxoisoindolin-5-yl)thiophen-2-yl)pyridin-3-yl)benzenesulfonamide] |  |  | 27% |  | 292 to 295 °C | 10.4 µM |  | 
6 | O=C1c2ccc(-c3ccc(-c4cncc(NS(=O)(=O)c5ccc(F)cc5F)c4)s3)cc2CN1CCO [Compound 56, 2,4-Difluoro-N-(5-(5-(2-(2-hydroxyethyl)-1-oxoisoindolin-5-yl)thiophen-2-yl)pyridin-3-yl)benzenesulfonamide] |  |  | 32% |  | 211 to 216 °C | 1.33 µM |  | 
7 | CCCCn1cc(C(C)=O)c2cc(-c3ccc(-c4cncc(NS(=O)(=O)c5ccc(F)cc5F)c4)s3)ccc21 [Compound 58, N-(5-(5-(3-Acetyl-1-butyl-1H-indol-5-yl)thiophen-2-yl)pyridin-3-yl)-2,4-difluorobenzenesulfonamide] |  |  |  | 5.5 µM | 188 to 191 °C |  | 64% | 
8 | CC(=O)c1cn(C)c2ccc(-c3ccc(-c4cncc(NS(=O)(=O)c5ccc(F)cc5F)c4)s3)cc12 [Compound 59, N-(5-(5-(3-Acetyl-1-methyl-1H-indol-5-yl)thiophen-2-yl)-pyridin-3-yl)-2,4-difluorobenzenesulfonamide] |  |  | 72% |  | 241 to 244 °C | 11.2 µM |  | 
9 | Cc1ccc(NS(=O)(=O)c2ccccn2)cc1-c1ccc(-c2ccc3c(c2)CN(C)C3=O)s1 [Compound 60, N-(4-Methyl-3-(5-(2-methyl-1-oxoisoindolin-5-yl)thiophen-2-yl)phenyl)pyridine-2-sulfonamide] |  |  | 17% | 15.4 µM | 274 to 277 °C |  |  | 
10 | CN1Cc2cc(-c3ccc(-c4ccc(OC(F)(F)F)c(NS(=O)(=O)c5ccccn5)c4)s3)ccc2C1=O [Compound 63, N-(5-(5-(2-Methyl-1-oxoisoindolin-5-yl)thiophen-2-yl)-2-(trifluoromethoxy)phenyl)pyridine-2-sulfonamide] |  |  |  | > 20 µM | 200 to 201 °C |  |  | 56.14 ± 9%
